Drawing on US20170369470A1, “Cyclic Compounds and Uses Thereof” (Karyopharm Therapeutics Inc., priority 2014, published 2017), this text covers IC50 for one compound.

What all share (type): cell-based
The test system of one test is MS751 cells. The experiment in a line: MTT cell proliferation assay, MS751 cells. The following applies: MS751 cells (human cervix squamous cell carcinoma metastasis); incubation approximately 64-72 hours; read-out: MTT Assay IC50 MS 751. The procedure: (§1) The MTT cell proliferation assay was used to study the cytotoxic properties of the compounds. The assay was performed according to the method described by Roche Molecular Biochemicals, with minor modifications. The assay is based on the cleavage of the tetrazolium salt, MTT, in the presence of an electron-coupling reagent. The water-insoluble formazan salt produced must be solubilized in an additional step. Cells grown in a 96-well tissue culture plate were incubated with the MTT solution for approximately 4 hours. After this incubation period, a water-insoluble formazan dye formed. After solubilization, the formazan dye was quantitated using a scanning multi-well spectrophotometer (ELISA reader). […] The cells were seeded at 5,000-10,000 cells in each well of 96-well plate in 100 μL of fresh culture medium and were allowed to attach overnight. The stock solutions of the compounds were diluted in 100 μL cell culture medium to obtain eight concentrations of each test compound, ranging from 1 nM to 30 μM. […] All optical densities were measured at 490 nm using a Vmax Kinetic Microplate Reader (Molecular Devices). In most cases, the assay was performed in duplicate and the results were presented as a mean percent inhibition to the negative control±SE. The following formula was used to calculate the percent of inhibition: Inhibition (%)=(1−(ODo/OD))×100.
(§2) The compounds were tested against MS751, Z138 and 3T3 cells. The MS751 cell line is derived from a metastasis to lymph node of human cervix from a patient diagnosed with squameous cell carcinoma of the cervix. The Z138 cell line is a mature B-cell acute lymphoblastic leukemia cell line derived from a patient with chronic lumphocytic leukemia. 3T3 cells are standard fibroblast cells; they were originally isolated from Swiss mouse embryo tissue.

The test system of a further test is Z138 cells. The experiment in a line: MTT cell proliferation assay, Z138 cells. The following applies: Homo sapiens, Z-138; Z138 cells (mantle cell lymphoma line); incubation approximately 64-72 hours. As to the method: as §1, §2
In general terms: Tetrazolium dyes change colour on reduction, which living cells bring about.

In another test the test system is 3T3 cells. The experiment in a line: MTT cell proliferation assay, 3T3 cells. The following applies: NIH3T3; 3T3 fibroblast cells (Swiss mouse embryo); incubation approximately 64-72 hours. The procedure:
as §1, §2

Where only a bound is given, the exact number is not on record here.

By IC50 is commonly meant the point on the concentration scale where inhibition reaches its midpoint. For the compound `Nc1ccc(/C=C/C(=O)NCc2cc3cc(-c4ccc(C(=O)N5CCC(F)(F)CC5)cc4)cc(-c4ccc(F)cc4)c3s2)cn1` [compound 536, (E)-3-(6-aminopyridin-3-yl)-N-((5-(4-(4,4-difluoropiperidine-1-carbonyl)phenyl)-7-(4-fluorophenyl)benzo[b]thiophen-2-yl)methyl)acrylamide], the values for the IC50 with MS751 cells, in the test with Z138 cells and in the test on 3T3 cells were less than 1000 nM, less than 1000 nM and greater than 10000 nM, respectively.
